Source: ChEMBL document CHEMBL4414672, “Synthesis of certain benzothieno[3,2-d]pyrimidine derivatives as a selective SIRT2 inhibitors” (Eur J Med Chem, 2020)
Converted amounts (≈) assume the structure as drawn.

What was measured:
[1] = tested on: MOLT-4; assay: Growth inhibition of human MOLT4 cells at 10^-5 M incubated for 48 hrs by sulforhodamine B assay; assay type: functional; conditions: MOLT-4, 48 h, read-out: GI
[2] = tested on: SK-OV-3; assay: Growth inhibition of human SKOV3 cells at 10^-5 M incubated for 48 hrs by sulforhodamine B assay; assay type: functional; conditions: SK-OV-3, 48 h, read-out: GI
[3] = tested on: NCI/ADR-RES; assay: Growth inhibition of human NCI/ADR-RES cells at 10^-5 M incubated for 48 hrs by sulforhodamine B assay; assay type: functional; conditions: read-out: GI
[4] = tested on: IGROV-1; assay: Growth inhibition of human IGROV1 cells at 10^-5 M incubated for 48 hrs by sulforhodamine B assay; assay type: functional; conditions: IGROV-1, 48 h, read-out: GI
[5] = tested on: HOP-62; assay: Growth inhibition of human HOP62 cells at 10^-5 M incubated for 48 hrs by sulforhodamine B assay; assay type: functional; conditions: HOP-62, 48 h, read-out: GI
[6] = tested on: PC-3; assay: Growth inhibition of human PC3 cells at 10^-5 M incubated for 48 hrs by sulforhodamine B assay; assay type: functional; conditions: PC-3, 48 h, read-out: GI
[7] = tested on: DU-145; assay: Growth inhibition of human DU145 cells at 10^-5 M incubated for 48 hrs by sulforhodamine B assay; assay type: functional; conditions: DU-145, 48 h, read-out: GI
[8] = tested on: 786-0; assay: Growth inhibition of human 786-0 cells at 10^-5 M incubated for 48 hrs by sulforhodamine B assay; assay type: functional; conditions: 786-0, 48 h, read-out: GI
[9] = tested on: OVCAR-3; assay: Growth inhibition of human OVCAR3 cells at 10^-5 M incubated for 48 hrs by sulforhodamine B assay; assay type: functional; conditions: OVCAR-3, 48 h, read-out: GI
[10] = tested on: HL-60(TB); assay: Growth inhibition of human HL-60(TB) cells at 10^-5 M incubated for 48 hrs by sulforhodamine B assay; assay type: functional; conditions: HL-60, 48 h, read-out: GI
[11] = tested on: SR; assay: Growth inhibition of human SR cells at 10^-5 M incubated for 48 hrs by sulforhodamine B assay; assay type: functional; conditions: read-out: GI
[12] = tested on: TK-10; assay: Growth inhibition of human TK10 cells at 10^-5 M incubated for 48 hrs by sulforhodamine B assay; assay type: functional; conditions: TK-10, 48 h, read-out: GI
[13] = tested on: SW-620; assay: Growth inhibition of human SW620 cells at 10^-5 M incubated for 48 hrs by sulforhodamine B assay; assay type: functional; conditions: SW-620, 48 h, read-out: GI
[14] = tested on: A549; assay: Growth inhibition of human A549/ATCC cells at 10^-5 M incubated for 48 hrs by sulforhodamine B assay; assay type: functional; conditions: A549, 48 h, read-out: GI
[15] = tested on: HOP-92; assay: Growth inhibition of human HOP92 cells at 10^-5 M incubated for 48 hrs by sulforhodamine B assay; assay type: functional; conditions: HOP-92, 48 h, read-out: GI
[16] = tested on: Hs-578T; assay: Growth inhibition of human Hs 578T cells at 10^-5 M incubated for 48 hrs by sulforhodamine B assay; assay type: functional; conditions: read-out: GI
[17] = tested on: EKVX; assay: Growth inhibition of human EKVX cells at 10^-5 M incubated for 48 hrs by sulforhodamine B assay; assay type: functional; conditions: read-out: GI
[18] = tested on: NCI-H23; assay: Growth inhibition of human NCI-H23 cells at 10^-5 M incubated for 48 hrs by sulforhodamine B assay; assay type: functional; conditions: NCI-H23, 48 h, read-out: GI
[19] = tested on: HCT-15; assay: Growth inhibition of human HCT15 cells at 10^-5 M incubated for 48 hrs by sulforhodamine B assay; assay type: functional; conditions: HCT-15, 48 h, read-out: GI
[20] = tested on: HCC 2998; assay: Growth inhibition of human HCC2998 cells at 10^-5 M incubated for 48 hrs by sulforhodamine B assay; assay type: functional; conditions: HCC 2998, 48 h, read-out: GI
[21] = tested on: OVCAR-8; assay: Growth inhibition of human OVCAR8 cells at 10^-5 M incubated for 48 hrs by sulforhodamine B assay; assay type: functional; conditions: OVCAR-8, 48 h, read-out: GI
[22] = tested on: KM12; assay: Growth inhibition of human KM12 cells at 10^-5 M incubated for 48 hrs by sulforhodamine B assay; assay type: functional; conditions: KM12, 48 h, read-out: GI
[23] = tested on: NCI-H322M; assay: Growth inhibition of human NCI-H322M cells at 10^-5 M incubated for 48 hrs by sulforhodamine B assay; assay type: functional; conditions: read-out: GI
[24] = tested on: MCF7; assay: Growth inhibition of human MCF7 cells at 10^-5 M incubated for 48 hrs by sulforhodamine B assay; assay type: functional; conditions: MCF7, 48 h, read-out: GI
[25] = tested on: ACHN; assay: Growth inhibition of human ACHN cells at 10^-5 M incubated for 48 hrs by sulforhodamine B assay; assay type: functional; conditions: read-out: GI
[26] = tested on: HT-29; assay: Growth inhibition of human HT-29 cells at 10^-5 M incubated for 48 hrs by sulforhodamine B assay; assay type: functional; conditions: HT-29, 48 h, read-out: GI
[27] = tested on: HCT-116; assay: Growth inhibition of human HCT116 cells at 10^-5 M incubated for 48 hrs by sulforhodamine B assay; assay type: functional; conditions: HCT-116, 48 h, read-out: GI
[28] = tested on: NCI-H460; assay: Growth inhibition of human NCI-H460 cells at 10^-5 M incubated for 48 hrs by sulforhodamine B assay; assay type: functional; conditions: NCI-H460, 48 h, read-out: GI
[29] = tested on: MDA-MB-468; assay: Growth inhibition of human MDA-MB-468 cells at 10^-5 M incubated for 48 hrs by sulforhodamine B assay; assay type: functional; conditions: MDA-MB-468, 48 h, read-out: GI
[30] = tested on: BT-549; assay: Growth inhibition of human BT549 cells at 10^-5 M incubated for 48 hrs by sulforhodamine B assay; assay type: functional; conditions: BT-549, 48 h, read-out: GI
[31] = tested on: T47D; assay: Growth inhibition of human T47D cells at 10^-5 M incubated for 48 hrs by sulforhodamine B assay; assay type: functional; conditions: read-out: GI
[32] = tested on: COLO 205; assay: Growth inhibition of human COLO205 cells at 10^-5 M incubated for 48 hrs by sulforhodamine B assay; assay type: functional; conditions: COLO 205, 48 h, read-out: GI
[33] = tested on: CCRF-CEM; assay: Growth inhibition of human CCRF-CEM cells at 10^-5 M incubated for 48 hrs by sulforhodamine B assay; assay type: functional; conditions: read-out: GI
[34] = tested on: CAKI-1; assay: Growth inhibition of human Caki1 cells at 10^-5 M incubated for 48 hrs by sulforhodamine B assay; assay type: functional; conditions: CAKI-1, 48 h, read-out: GI
[35] = tested on: OVCAR-4; assay: Growth inhibition of human OVCAR4 cells at 10^-5 M incubated for 48 hrs by sulforhodamine B assay; assay type: functional; conditions: OVCAR-4, 48 h, read-out: GI
[36] = tested on: RXF 393; assay: Growth inhibition of human RXF393 cells at 10^-5 M incubated for 48 hrs by sulforhodamine B assay; assay type: functional; conditions: RXF 393, 48 h, read-out: GI
[37] = tested on: K562; assay: Growth inhibition of human K562 cells at 10^-5 M incubated for 48 hrs by sulforhodamine B assay; assay type: functional; conditions: K562, 48 h, read-out: GI
[38] = tested on: SN12C; assay: Growth inhibition of human SN12C cells at 10^-5 M incubated for 48 hrs by sulforhodamine B assay; assay type: functional; conditions: read-out: GI
[39] = tested on: A498; assay: Growth inhibition of human A498 cells at 10^-5 M incubated for 48 hrs by sulforhodamine B assay; assay type: functional; conditions: A498, 48 h, read-out: GI
[40] = tested on: NCI-H522; assay: Growth inhibition of human NCI-H522 cells at 10^-5 M incubated for 48 hrs by sulforhodamine B assay; assay type: functional; conditions: NCI-H522, 48 h, read-out: GI
[41] = tested on: NCI-H226; assay: Growth inhibition of human NCI-H226 cells at 10^-5 M incubated for 48 hrs by sulforhodamine B assay; assay type: functional; conditions: NCI-H226, 48 h, read-out: GI
[42] = tested on: MDA-MB-231; assay: Growth inhibition of human MDA-MB-231 cells at 10^-5 M incubated for 48 hrs by sulforhodamine B assay; assay type: functional; conditions: MDA-MB-231, 48 h, read-out: GI
[43] = tested on: OVCAR-5; assay: Growth inhibition of human OVCAR5 cells at 10^-5 M incubated for 48 hrs by sulforhodamine B assay; assay type: functional; conditions: OVCAR-5, 48 h, read-out: GI
[44] = tested on: UO-31; assay: Growth inhibition of human UO31 cells at 10^-5 M incubated for 48 hrs by sulforhodamine B assay; assay type: functional; conditions: UO-31, 48 h, read-out: GI
[45] = tested on: MCF7; assay: Cytotoxicity against human MCF7 cells assessed as reduction in cell viability after 24 hrs by MTT assay; assay type: functional, cell-based; conditions: MCF7, 24 h
[46] = tested on: UO-31; assay: Cytotoxicity against human UO31 cells assessed as reduction in cell viability after 24 hrs by MTT assay; assay type: functional, cell-based; conditions: UO-31, 24 h

Compound: O=C1CSC2=Nc3c(sc4ccc(Cl)cc34)C(c3cccc([N+](=O)[O-])c3)N12 (stereo unspecified)
- inhibition of growth at 10 µM [1]: 8.28%
- inhibition of growth at 10 µM [2]: 7.65%
- inhibition of growth at 10 µM [3]: 12.2%
- inhibition of growth at 10 µM [4]: 17.3%
- inhibition of growth at 10 µM [5]: 11%
- inhibition of growth at 10 µM [6]: 1.11%
- inhibition of growth at 10 µM [7]: -14.2%
- inhibition of growth at 10 µM [8]: -7.37%
- inhibition of growth at 10 µM [9]: 0.32%
- inhibition of growth at 10 µM [10]: 5.48%
- inhibition of growth at 10 µM [11]: 17.6%
- inhibition of growth at 10 µM [12]: -14.8%
- inhibition of growth at 10 µM [13]: -3.15%
- inhibition of growth at 10 µM [14]: -1.88%
- inhibition of growth at 10 µM [15]: -8.65%
- inhibition of growth at 10 µM [16]: -2.09%
- inhibition of growth at 10 µM [17]: 21.2%
- inhibition of growth at 10 µM [18]: 10.5%
- inhibition of growth at 10 µM [19]: -1.95%
- inhibition of growth at 10 µM [20]: -24.4%
- inhibition of growth at 10 µM [21]: 0.58%
- inhibition of growth at 10 µM [22]: -3.54%
- inhibition of growth at 10 µM [23]: 5.33%
- inhibition of growth at 10 µM [24]: 17.9%
- inhibition of growth at 10 µM [25]: 3.93%
- inhibition of growth at 10 µM [26]: -8.35%
- inhibition of growth at 10 µM [27]: -0.32%
- inhibition of growth at 10 µM [28]: -3.7%
- inhibition of growth at 10 µM [29]: 4.8%
- inhibition of growth at 10 µM [30]: -21.8%
- inhibition of growth at 10 µM [31]: 8.22%
- inhibition of growth at 10 µM [32]: -4.05%
- inhibition of growth at 10 µM [33]: -12%
- inhibition of growth at 10 µM [34]: 20%
- inhibition of growth at 10 µM [35]: 2.1%
- inhibition of growth at 10 µM [36]: -10.1%
- inhibition of growth at 10 µM [37]: 6.39%
- inhibition of growth at 10 µM [38]: 2.31%
- inhibition of growth at 10 µM [39]: -13.1%
- inhibition of growth at 10 µM [40]: 9.11%
- inhibition of growth at 10 µM [41]: 13.7%
- inhibition of growth at 10 µM [42]: 10.8%
- inhibition of growth at 10 µM [43]: -6.83%
- inhibition of growth at 10 µM [44]: 38.3%

Compound: O=c1[nH]c(=S)[nH]c(-c2ccccc2)c1Cc1c(O)ccc2ccccc12 [CAMBINOL]
- IC50 [45]: 33.9 µg/mL (≈ 94.2 µM)
- IC50 [46]: 98.6 µg/mL (≈ 274 µM)
